This test has as its system H1 human embryonic stem cells. The test is described as follows: Four-step differentiation before transplant, RT-PCR of pancreatic endoderm markers after step 4 (Example 18). The test is classed as cell-based. Particulars: GDF-8 100 ng/ml + 2.5 μM compound in step 1, versus activin A and Wnt3a. On the procedure: The differentiation process was started three days after the cells were seeded onto 6-well plates coated with reduced growth factor […]™. A four-step protocol was used for the in vitro differentiation of H1 human embryonic stem cells to cells expressing markers characteristic of the pancreatic endoderm lineage. Step 1 was conducted over three days to generate definitive endoderm cells. On the first day of step 1, differentiation was initiated by aspirating spent culture medium and adding an equal volume of RPMI-1640 basal medium (Invitrogen; Cat 22400) with 2% Albumin Bovine Fraction V, Fatty Acid Free (FAF BSA) (Proliant Biologicals; Cat #SKU 68700) and 8 ng/ml bFGF. In one treatment group, cells were exposed to 100 ng/ml activin A (PeproTech; Cat #120-14) with 20 ng/ml Wnt3a (R&D Systems; Cat #1324-WN/CF). In a second treatment group, cells were exposed to 100 ng/ml GDF-8 (R&D Systems; Cat #788-G8) with 2.5 μM Compound 40. In a third treatment group, cells were exposed to 100 ng/ml GDF-8 (R&D Systems; Cat #788-G8) with 2.5 μM Compound 202. […]
Step 4 of the differentiation protocol was conducted over three days. […] On the following day, cells in suspension culture were collected and counted. […]

Consider 1 molecule from patent US9593305B2, “Differentiation of pluripotent stem cells” (Janssen Biotech, Inc., priority 2008, dated 2017).

For `C=CCN1CC(=O)NCCCc2cncc(c2)-c2ncnc(n2)Nc2cccc(c2)C1` [Compound 40, 14-Prop-2-en-1-yl-3,5,7,14,17,23,27-heptaazatetracyclo[19.3.1.1˜2.6˜0.1˜8,12˜]heptacosa-1(25), 2(27), 3,5,8(26), 9,11,21,23-nonaen-16-one], the “PE markers CDX2, MAFA, NGN3, NKX6.1, PDX1 and Ptf1 alpha at the conclusion of step 4 (RT-PCR)” value is on record as “expressed equivalent levels of PE markers”.
